Laboratory results taken from US9321773B2, “Compounds” (Respivert Ltd, priority 2009, dated 2016).
Where two headings read alike, the source gives them in different places.

Assays:
[1] = system: PMA-differentiated U937 cells; experiment: MTT Assay (cell viability); format: cell-based, Human; settings: percentage loss of cell viability; for Cell Viability MTT Assay in D-U937 cells at 4 hr: 4 hr in 5% FCS; for Cell Viability MTT Assay in D-U937 cells at 24 hr: 24 hr in 10% FCS
Procedure, shortened: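 Differentiated U937 cells treated with compound for 4 hr (5% FCS) or 24 hr (10% FCS), then given MTT for 1 hr; formazan dissolved in DMSO and absorbance read at 550 nm. Viability loss expressed as % versus 0.5% DMSO vehicle.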

recombinant PI3 kinase γ = recombinant PI3 kinase γ (Homo sapiens (Human), UniProt P48736); experiment: Enzyme Inhibition Assay (HTRF PI3K enzyme assay, TR-FRET); format: biochemical
Procedure, shortened: (§1)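 TR-FRET readout after 15-18 hr at RT with biotinylated PIP3, GST-tagged GRP1 PH domain and europium/APC fluorophores; product PIP3 displaces the tracer and lowers the signal. Beforehand, compound and PIP2 were reacted for 2 hr at RT with human recombinant PI3Kα, δ or γ.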

recombinant PI3 kinase α = recombinant PI3 kinase α (Homo sapiens (Human), UniProt P42336); experiment: as above; format: biochemical
Procedure, shortened: as §1

recombinant PI3 kinase δ = recombinant PI3 kinase δ (Homo sapiens (Human), UniProt O00329); experiment: as above; format: biochemical
Procedure, shortened: as §1

[2] = system: H2O2 induced pAkt in D-U937 cells; experiment: PI3Kδ Cell Based Assay (H2O2 induced pAkt); settings: Homo sapiens, dU937
Procedure, shortened: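 Read-out is the pAkt/total Akt signal ratio, measured with anti-pAkt and anti-pan-Akt antibodies after H2O2 stimulation. Cells were U937 monocytes given PMA (100 ng/mL) for 48 to 72 hr. IC50 values fitted from compound serial dilutions.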

[3] = activity range, read-out: PI3 Kinase Inhibition IC50 values at stated Isozyme γ
[4] = activity range, read-out: PI3 Kinase Inhibition IC50 values at stated Isozyme α
[5] = activity range, read-out: PI3 Kinase Inhibition IC50 values at stated Isozyme δ
[6] = activity range, D-U937 cells, read-out: Cellular Activity IC50 values (H2O2 induced pAkt D-U937 Cells)
[7] = read-out: PI3 Kinase Inhibition IC50 values at stated Isozyme (nM) γ
[8] = read-out: PI3 Kinase Inhibition IC50 values at stated Isozyme (nM) α
[9] = read-out: PI3 Kinase Inhibition IC50 values at stated Isozyme (nM) δ
[10] = read-out: Cellular Activity IC50 values (H2O2 induced pAkt (nM) D-U937 Cells)

recombinant PI3 kinase γ, sequence (P48736 whole entry, the tested form may be a part): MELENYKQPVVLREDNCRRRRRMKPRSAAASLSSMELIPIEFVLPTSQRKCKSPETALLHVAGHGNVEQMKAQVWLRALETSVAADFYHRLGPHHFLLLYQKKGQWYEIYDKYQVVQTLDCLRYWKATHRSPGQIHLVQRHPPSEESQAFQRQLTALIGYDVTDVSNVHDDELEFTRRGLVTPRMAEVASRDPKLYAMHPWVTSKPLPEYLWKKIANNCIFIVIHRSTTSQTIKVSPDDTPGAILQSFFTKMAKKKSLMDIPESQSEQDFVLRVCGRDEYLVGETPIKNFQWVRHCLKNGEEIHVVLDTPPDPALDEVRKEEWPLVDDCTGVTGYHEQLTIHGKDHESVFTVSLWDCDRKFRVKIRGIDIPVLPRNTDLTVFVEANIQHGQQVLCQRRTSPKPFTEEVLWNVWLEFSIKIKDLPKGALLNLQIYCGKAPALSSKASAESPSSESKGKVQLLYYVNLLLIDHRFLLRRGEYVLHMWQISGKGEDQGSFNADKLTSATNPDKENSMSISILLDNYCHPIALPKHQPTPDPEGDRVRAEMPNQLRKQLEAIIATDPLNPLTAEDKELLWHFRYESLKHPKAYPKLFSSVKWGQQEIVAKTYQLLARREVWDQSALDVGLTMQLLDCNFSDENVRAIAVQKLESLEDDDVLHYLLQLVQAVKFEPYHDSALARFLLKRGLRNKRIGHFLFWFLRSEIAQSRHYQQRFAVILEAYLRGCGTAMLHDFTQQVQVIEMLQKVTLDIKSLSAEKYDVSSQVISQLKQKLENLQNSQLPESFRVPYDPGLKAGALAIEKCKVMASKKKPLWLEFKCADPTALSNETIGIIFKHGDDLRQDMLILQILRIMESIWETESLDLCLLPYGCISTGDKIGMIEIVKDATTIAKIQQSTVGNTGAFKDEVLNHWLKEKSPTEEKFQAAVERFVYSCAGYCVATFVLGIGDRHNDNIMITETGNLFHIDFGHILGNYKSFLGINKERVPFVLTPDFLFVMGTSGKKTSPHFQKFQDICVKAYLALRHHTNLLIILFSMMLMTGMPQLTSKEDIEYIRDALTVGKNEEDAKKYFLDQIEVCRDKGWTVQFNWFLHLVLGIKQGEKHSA
recombinant PI3 kinase δ, sequence (O00329 whole entry): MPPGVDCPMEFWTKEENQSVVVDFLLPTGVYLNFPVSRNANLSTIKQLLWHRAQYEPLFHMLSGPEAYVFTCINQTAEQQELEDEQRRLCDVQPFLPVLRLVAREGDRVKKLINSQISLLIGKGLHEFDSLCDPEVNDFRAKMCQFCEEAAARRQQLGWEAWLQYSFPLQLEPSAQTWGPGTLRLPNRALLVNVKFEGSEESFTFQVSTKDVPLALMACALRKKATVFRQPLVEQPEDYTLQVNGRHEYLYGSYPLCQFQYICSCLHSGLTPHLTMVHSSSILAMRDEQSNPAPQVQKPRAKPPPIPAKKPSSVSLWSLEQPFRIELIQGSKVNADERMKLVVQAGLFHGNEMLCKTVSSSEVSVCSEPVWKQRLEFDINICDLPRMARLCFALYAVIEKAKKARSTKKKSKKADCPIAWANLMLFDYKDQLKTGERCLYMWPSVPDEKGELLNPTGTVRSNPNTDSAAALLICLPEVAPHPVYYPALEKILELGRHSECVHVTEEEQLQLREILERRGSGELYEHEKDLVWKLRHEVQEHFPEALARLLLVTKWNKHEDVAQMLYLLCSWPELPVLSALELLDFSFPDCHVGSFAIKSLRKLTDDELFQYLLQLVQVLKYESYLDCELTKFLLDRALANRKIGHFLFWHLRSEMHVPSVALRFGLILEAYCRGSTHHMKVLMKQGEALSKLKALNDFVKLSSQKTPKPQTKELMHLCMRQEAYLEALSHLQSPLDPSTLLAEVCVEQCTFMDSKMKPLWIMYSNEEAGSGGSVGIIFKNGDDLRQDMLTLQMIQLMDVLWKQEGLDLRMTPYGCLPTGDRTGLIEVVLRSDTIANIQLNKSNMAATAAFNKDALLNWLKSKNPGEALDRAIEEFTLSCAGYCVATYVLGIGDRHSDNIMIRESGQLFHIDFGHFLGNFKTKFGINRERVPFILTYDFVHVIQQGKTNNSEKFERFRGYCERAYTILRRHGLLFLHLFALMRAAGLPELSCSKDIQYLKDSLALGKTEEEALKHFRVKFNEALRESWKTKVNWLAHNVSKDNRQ
recombinant PI3 kinase δ, sequence (P27986 whole entry partner): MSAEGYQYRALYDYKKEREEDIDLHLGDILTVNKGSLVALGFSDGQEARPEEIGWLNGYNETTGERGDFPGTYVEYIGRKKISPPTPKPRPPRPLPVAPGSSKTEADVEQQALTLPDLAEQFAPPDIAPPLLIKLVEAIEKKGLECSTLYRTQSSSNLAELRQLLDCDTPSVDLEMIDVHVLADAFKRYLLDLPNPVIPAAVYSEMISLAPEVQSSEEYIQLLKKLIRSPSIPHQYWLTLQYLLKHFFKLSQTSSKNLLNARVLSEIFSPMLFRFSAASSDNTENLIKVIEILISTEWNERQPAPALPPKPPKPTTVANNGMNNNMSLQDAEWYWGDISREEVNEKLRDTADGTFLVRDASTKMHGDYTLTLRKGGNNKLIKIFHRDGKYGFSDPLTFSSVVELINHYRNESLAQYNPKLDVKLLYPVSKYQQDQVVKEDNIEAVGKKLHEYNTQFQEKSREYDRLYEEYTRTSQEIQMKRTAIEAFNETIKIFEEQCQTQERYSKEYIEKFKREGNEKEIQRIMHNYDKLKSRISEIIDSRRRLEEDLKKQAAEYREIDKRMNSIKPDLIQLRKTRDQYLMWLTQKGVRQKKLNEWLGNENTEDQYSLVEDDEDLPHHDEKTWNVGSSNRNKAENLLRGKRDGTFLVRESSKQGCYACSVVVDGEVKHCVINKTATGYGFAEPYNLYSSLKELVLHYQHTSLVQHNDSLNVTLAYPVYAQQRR
recombinant PI3 kinase α, sequence (P42336 whole entry): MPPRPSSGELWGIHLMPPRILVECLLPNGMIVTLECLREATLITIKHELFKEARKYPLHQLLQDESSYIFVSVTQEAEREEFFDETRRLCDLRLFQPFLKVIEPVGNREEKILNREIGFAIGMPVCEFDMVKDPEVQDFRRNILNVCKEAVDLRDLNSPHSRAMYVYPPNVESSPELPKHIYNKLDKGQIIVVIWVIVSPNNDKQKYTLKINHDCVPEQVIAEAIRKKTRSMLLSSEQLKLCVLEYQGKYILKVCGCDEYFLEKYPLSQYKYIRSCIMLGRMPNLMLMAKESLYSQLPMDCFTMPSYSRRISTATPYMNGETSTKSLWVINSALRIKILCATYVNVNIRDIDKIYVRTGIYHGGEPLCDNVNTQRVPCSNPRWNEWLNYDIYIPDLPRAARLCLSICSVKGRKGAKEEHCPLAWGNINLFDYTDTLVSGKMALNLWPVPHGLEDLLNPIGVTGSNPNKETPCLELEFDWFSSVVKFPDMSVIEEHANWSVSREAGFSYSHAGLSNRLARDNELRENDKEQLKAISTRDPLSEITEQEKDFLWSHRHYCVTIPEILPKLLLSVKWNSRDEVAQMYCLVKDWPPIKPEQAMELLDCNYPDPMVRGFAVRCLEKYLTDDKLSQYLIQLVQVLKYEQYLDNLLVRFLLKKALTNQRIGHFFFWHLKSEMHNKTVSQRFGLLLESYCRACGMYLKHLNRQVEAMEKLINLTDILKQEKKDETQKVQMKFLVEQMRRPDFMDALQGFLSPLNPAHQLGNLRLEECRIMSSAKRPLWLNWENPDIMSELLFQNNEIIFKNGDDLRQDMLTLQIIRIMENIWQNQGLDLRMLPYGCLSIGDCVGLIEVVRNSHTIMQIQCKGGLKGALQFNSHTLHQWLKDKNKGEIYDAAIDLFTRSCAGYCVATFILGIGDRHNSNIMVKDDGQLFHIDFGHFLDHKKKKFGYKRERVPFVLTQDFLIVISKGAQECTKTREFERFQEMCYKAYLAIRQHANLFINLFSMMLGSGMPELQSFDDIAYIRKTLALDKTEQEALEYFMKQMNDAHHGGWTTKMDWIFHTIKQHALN
recombinant PI3 kinase α, sequence (P27986 whole entry partner): as the sequence (P27986 whole entry partner) above

Row | IC50 (recombinant PI3 kinase γ; [3]) [nM] | IC50 (recombinant PI3 kinase α; [4]) [nM] | IC50 (recombinant PI3 kinase δ; [5]) [nM] | IC50 [2, 6] [nM] | IC50 (recombinant PI3 kinase γ; [7]) [nM] | IC50 (recombinant PI3 kinase α; [8]) [nM] | IC50 (recombinant PI3 kinase δ; [9]) [nM] | IC50 [2, 10] [nM] | SMILES | Cell Viability MTT Assay in D-U937 cells at 4 hr [1] | Cell Viability MTT Assay in D-U937 cells at 24 hr [1]
1 | < 50 | 50 to 1000 | < 50 | < 10 |  |  |  |  | CC(=O)N1CCN(C(=O)CCCC#Cc2cccc3nc(Cn4nc(-c5ccc(O)cc5)c5c(N)ncnc54)n(Cc4ccccc4Cl)c(=O)c23)CC1 [Example 71] | − (− <30%) | − (− <30%)
2 | < 50 | 50 to 1000 | < 50 | < 10 |  |  |  |  | Nc1ncnc2c1c(-c1cccc(O)c1)nn2Cc1nc2cccc(C#CCCNC(=O)N3CCOCC3)c2c(=O)n1Cc1ccccc1Cl [Example 72, N-(4-(2-((4-Amino-3-(3-hydroxyphenyl)-1H-pyrazolo[3,4-d]pyrimidin-1-yl)methyl)-3-(2-chlorobenzyl)-4-oxo-3,4-dihydroquinazolin-5-yl)but-3-yn-1-yl)morpholine-4-carboxamide] | − (− <30%) | − (− <30%)
3 | < 50 | 50 to 1000 | < 50 | < 10 |  |  |  |  | COCCN(CCCC#Cc1cccc2nc(Cn3nc(-c4ccc(O)cc4)c4c(N)ncnc43)n(Cc3ccccc3Cl)c(=O)c12)CCOC [Example 73, 2-((4-Amino-3-(4-hydroxyphenyl)-1H-pyrazolo[3,4-d]pyrimidin-1-yl)methyl)-5-(5-(bis(2-methoxyethyl)amino)pent-1-ynyl)-3-(2-chlorobenzyl)quinazolin-4(3H)-one] | − (− <30%) | − (− <30%)
4 | < 50 | 50 to 1000 | < 50 | < 10 |  |  |  |  | Nc1ncnc2c1c(-c1ccc(O)cc1)nn2Cc1nc2cccc(C#CCCCC(=O)NC3CCOCC3)c2c(=O)n1Cc1ccccc1Cl [Example 75, 6-(2-((4-Amino-3-(4-hydroxyphenyl)-1H-pyrazolo[3,4-d]pyrimidin-1-yl)methyl)-3-(2-chlorobenzyl)-4-oxo-3,4-dihydroquinazolin-5-yl)-N-(tetrahydro-2H-pyran-4-yl) hex-5-ynamide] | − (− <30%) | − (− <30%)
5 | < 50 | 50 to 1000 | < 50 | < 10 |  |  |  |  | Nc1ncnc2c1c(-c1ccc(O)cc1)nn2Cc1nc2cccc(C#CCCCC(=O)NCCN3CCOCC3)c2c(=O)n1Cc1ccccc1Cl [Example 76, 6-(2-((4-Amino-3-(4-hydroxyphenyl)-1H-pyrazolo[3,4-d]pyrimidin-1-yl)methyl)-3-(2-chlorobenzyl)-4-oxo-3,4-dihydroquinazolin-5-yl)-N-(2-morpholinoethyl)hex-5-ynamide] | − (− <30%) | − (− <30%)
6 | < 50 | 50 to 1000 | < 50 | < 10 |  |  |  |  | COCCN1CCN(C(=O)CCCC#Cc2cccc3nc(Cn4nc(-c5ccc(O)cc5)c5c(N)ncnc54)n(Cc4ccccc4Cl)c(=O)c23)CC1 [Example 77, 2-((4-Amino-3-(4-hydroxyphenyl)-1H-pyrazolo[3,4-d]pyrimidin-1-yl)methyl)-3-(2-chlorobenzyl)-5-(6-(4-(2-methoxyethyl)piperazin-1-yl)-6-oxohex-1-ynyl) quinazolin-4(3H)-one] | − (− <30%) | − (− <30%)
7 | < 50 | 50 to 1000 | < 50 | < 10 |  |  |  |  | CN(C)CCNC(=O)CCCC#Cc1cccc2nc(Cn3nc(-c4ccc(O)cc4)c4c(N)ncnc43)n(Cc3ccccc3Cl)c(=O)c12 [Example 78, 6-(2-((4-Amino-3-(4-hydroxyphenyl)-1H-pyrazolo[3,4-d]pyrimidin-1-yl)methyl)-3-(2-chlorobenzyl)-4-oxo-3,4-dihydroquinazolin-5-yl)-N-(2-(dimethylamino)ethyl) hex-5-ynamide] | − (− <30%) | − (− <30%)
8 | 50 to 1000 | 50 to 1000 | < 50 | < 10 |  |  |  |  | Nc1ncnc2c1c(-c1ccc(O)cc1)nn2Cc1nc2cccc(C#CCCCC(=O)Nc3ccncc3)c2c(=O)n1Cc1ccccc1Cl [Example 79, 6-(2-((4-Amino-3-(4-hydroxyphenyl)-1H-pyrazolo[3,4-d]pyrimidin-1-yl)methyl)-3-(2-chlorobenzyl)-4-oxo-3,4-dihydroquinazolin-5-yl)-N-(pyridin-4-yl)hex-5-ynamide] | − (− <30%) | − (− <30%)
9 | 50 to 1000 | 50 to 1000 | < 50 | < 10 |  |  |  |  | CN(C)C1CCN(C(=O)CCCC#Cc2cccc3nc(Cn4nc(-c5ccc(O)cc5)c5c(N)ncnc54)n(Cc4ccccc4Cl)c(=O)c23)CC1 [Example 81, 2-((4-Amino-3-(4-hydroxyphenyl)-1H-pyrazolo[3,4-d]pyrimidin-1-yl)methyl)-3-(2-chlorobenzyl)-5-(6-(4-(dimethylamino)piperidin-1-yl)-6-oxohex-1-ynyl) quinazolin-4(3H)-one] | − (− <30%) | − (− <30%)
10 | < 50 | 50 to 1000 | < 50 | < 10 |  |  |  |  | COCCN(CCOC)C(=O)CCCC#Cc1cccc2nc(Cn3nc(-c4ccc(O)cc4)c4c(N)ncnc43)n(Cc3ccccc3Cl)c(=O)c12 [Example 82, 6-(2-((4-Amino-3-(4-hydroxyphenyl)-1H-pyrazolo[3,4-d]pyrimidin-1-yl)methyl)-3-(2-chlorobenzyl)-4-oxo-3,4-dihydroquinazolin-5-yl)-N,N-bis(2-methoxyethyl)hex-5-ynamide] | − (− <30%) | − (− <30%)
11 | < 50 | < 50 | < 50 | < 10 | 22 | 27 | 36 | 0.41 | CC(C)NC(=O)CCCC#Cc1cccc2nc(Cn3nc(-c4ccc(O)cc4)c4c(N)ncnc43)n(Cc3ccccc3Cl)c(=O)c12 [Example 86, 6-(2-((4-Amino-3-(4-hydroxyphenyl)-1H-pyrazolo[3,4-d]pyrimidin-1-yl)methyl)-3-(2-chlorobenzyl)-4-oxo-3,4-dihydroquinazolin-5-yl)-N-isopropylhex-5-ynamide] | − (− <30%) | − (− <30%)
12 | < 50 | 50 to 1000 | < 50 | < 10 |  |  |  |  | CN(C)C(=O)CCCC#Cc1cccc2nc(Cn3nc(-c4ccc(O)cc4)c4c(N)ncnc43)n(Cc3ccccc3Cl)c(=O)c12 [Example 88, 6-(2-((4-Amino-3-(4-hydroxyphenyl)-1H-pyrazolo[3,4-d]pyrimidin-1-yl)methyl)-3-(2-chlorobenzyl)-4-oxo-3,4-dihydroquinazolin-5-yl)-N,N-dimethylhex-5-ynamide] | − (− <30%) | − (− <30%)
13 | < 50 | > 1000 | < 50 | < 10 | 47 | 1490 | 3 | 0.2 | Nc1ncnc2c1c(-c1ccc(O)cc1)nn2Cc1nc2cccc(C#CCCCC(=O)N3CCCC3)c2c(=O)n1Cc1ccccc1Cl [Example 89, 2-((4-Amino-3-(4-hydroxyphenyl)-1H-pyrazolo[3,4-d]pyrimidin-1-yl)methyl)-3-(2-chlorobenzyl)-5-(6-oxo-6-(pyrrolidin-1-yl)hex-1-yn-1-yl)quinazolin-4(3H)-one] | − (− <30%) | − (− <30%)
14 | < 50 | 50 to 1000 | < 50 | < 10 |  |  |  |  | CN(C)C1CCN(C(=O)CCCC#Cc2cccc3nc(Cn4nc(-c5ccc(O)cc5)c5c(N)ncnc54)n(Cc4ccccc4Cl)c(=O)c23)C1 (centres unmarked) [Example 91, 2-((4-Amino-3-(4-hydroxyphenyl)-1H-pyrazolo[3,4-d]pyrimidin-1-yl)methyl)-3-(2-chlorobenzyl)-5-(6-(3-(dimethylamino)pyrrolidin-1-yl)-6-oxohex-1-ynyl) quinazolin-4(3H)-one] | − (− <30%) | − (− <30%)
